From ChEMBL document CHEMBL1150229, “Serrulatane diterpenes with antimycobacterial activity isolated from the West Indian sea whip Pseudopterogorgia elisabethae” (2001)
Active and inactive are the calls of the source. The calls are words filed in the database; no cut-off is given here.

Key:
[1] = tested on: Mycobacterium tuberculosis; assay: Antitubercular activity against Mycobacterium tuberculosis H37Rv at 12.5 ug/ml; format: functional
[2] = tested on: NCI60; assay: Cytotoxicity against human NCI60 cells; format: functional, cell-based
[3] = tested on: Mycobacterium tuberculosis; assay: Antitubercular activity against Mycobacterium tuberculosis H37Rv at 6.25 ug/ml; format: functional

Compound	Activity [1] [%]	Activity [2]	Activity [3] [%]
CC(C)=CCC[C@H](C)[C@H]1CC[C@H](C)c2c1cc(C)c1ncoc21	66	–	–
CC(C)=CCC[C@H](C)[C@H]1CC[C@H](C)c2cc(O)c(C)cc21	–	inactive	77
CC(C)=C[C@@H]1C[C@H](C)[C@H]2CC[C@H](C)c3c2c1c(C)c1ncoc31 [PSEUDOPTEROXAZOLE]	97	–	–
CC(C)=CCC[C@H](C)[C@H]1CC[C@H](C)c2ccc(C)cc21 [EROGORGIAENE]	96	–	–
